The test system of one experiment is murine MC/9 MCs. In words: MC/9 - NIH3T3 transwell co-culture, mast cell degranulation by β-hexosaminidase release. Format: cell-based. The following applies: 24 hours treatment, then 30 minute sensitization with C48/80. Here is the method:
(§1) Given that both MCs and fibroblasts are present in the TME, the consequences of MC activation on myofibroblasts was explored using a co-culture assay in which murine MC/9 MCs and NIH3T3 myofibroblasts were separated by a transwell chamber with micropores that only allowed chemical communication (FIG. 13A). In this system, degranulation efficiency was determined by measuring the concentration of β-hexosaminidase (β-hex) in the supernatant. MC degranulation was induced through exposure to compound 48/80 (C48/80), which binds to the MRGPRB2 receptor (the orthologue of the human G-protein-coupled receptor MRGPRX2). […] Co-cultures treated with a vehicle control and Triton X-100 were used as internal assay control to evaluate background and maximum β-hex release, respectively. Transforming growth factor (TGF)-β1 was used as a fibroblast activator due to its capacity to induce a myofibroblast phenotype of the NIH3T3 cells. MC/9 cells were cultivated with NIH3T3 cells for 24 hours and then treated with either ketotifen or TGFβ for additional 24 hours in low serum medium, followed by a 30 minute sensitization with C48/80.

Another experiment concerns NIH3T3 cells. The experiment is described as follows: Myofibroblast differentiation in co-culture, αSMA and collagen I immunofluorescence. Format: cell-based, murine. The method, then: as §1
To further explore the MC-fibroblast interaction, the differentiation process of NIH3T3 cells in the co-culture system was monitored by assaying levels of αSMA and collagen I, which are two markers of the myofibroblast phenotype, by immunofluorescence staining (FIG. 13C, FIG. 13D, and FIG. 13E).

A further experiment concerns MCA205 cells. The experiment is described as follows: Re-challenge of long-term survivors with MCA205 cells. The format is in vivo, mouse. The following applies: re-challenge with 2.5×10^5 MCA205 cells s.c., 80 days after resection of primary tumors. The source says: Since doxorubicin has potential to establish favorable immunogenic conditions within the TME, which could affect the efficacy of immunotherapy, it was investigated if this immune response is preserved against rechallenge of long-term survivors with the same cell line. Mice were considered long-term survivors if no tumor was detected 80 days after surgical resection of MCA205 primary tumors. Five long-term survivors from each treatment group were further re-challenged with 2.5×10^5 MCA205 cells injected subcutaneously into the flank region. Cells were prepared in 50 μl of PBS. Naïve mice were implanted in parallel as controls.

A further experiment concerns MCA205 tumors. The experiment is described as follows: Ketotifen pretreatment with doxorubicin / anti-PD-L1, tumor growth. Format: in vivo, mouse. The following applies: anti-PD-L1 10 mg/kg, doxorubicin 5 mg/kg i.p. days 7, 10, 13, ketotifen 10 mg/kg daily. An excerpt:
Daily ketotifen continued until completion of doxorubicin-anti-PD-L1 combination treatment.

As to “TGFβ: fibroblast activator inducing a myofibroblast phenotype of the NIH3T3 cells”, the “MC degranulation (β-hex release)” value in the experiment with murine MC/9 MCs is given as “did not affect MC degranulation”. Further, the “αSMA and collagen I protein expression” value was “no change was observed” in the experiment on NIH3T3 cells (TGFβ alone) and “significant increase” in the experiment with NIH3T3 cells (TGFβ together with activated MCs).

In the case of `COc1cccc2c1C(=O)c1c(O)c3c(c(O)c1C2=O)C[C@@](O)(C(=O)CO)C[C@@H]3O[C@H]1C[C@H](N)[C@H](O)[C@H](C)O1` [doxorubicin], in the experiment on MCA205 cells, the “tumor development after re-challenge (mice out of five long-term survivors per group)” value is on record as “four mice”. Besides, in the experiment with MCA205 tumors, the “tumor growth (relative growth, tumor mass day 16)” value is “Neither anti-PD-L1 nor doxorubicin monotherapies affected tumor growth”.

The values above are taken from patent publication US20250041286A1, “CANCER TREATMENT USING KETOTIFEN IN COMBINATION WITH A CHECKPOINT INHIBITOR” (Materia Therapeutics Inc., priority 2021, published 2025).
